Laboratory results taken from ChEMBL document CHEMBL6103654, “Design, Biological Characterization, and Discovery of Capromorelin Derivatives as Oral Growth Hormone Secretagogue Receptor Type 1a Agonist for the Treatment of Growth Hormone Deficiency” (J Med Chem, 2025).
The source made the active and inactive calls. The rule behind the calls is not given here.

Legend:
[1] = Genotoxicity in Salmonella typhimurium TA1535 by Ames test; assay type: toxicity; settings: salmonella enterica subsp. enterica serovar typhimurium
[2] = Metabolic stability in monkey liver microsome assessed as hepatic clearance at 1 uM measured upto 60 mins in presence of NADPH by LC-MS/MS analysis; assay type: ADME, Macaca mulatta; settings: rhesus monkey, liver microsomes, read-out: CLH
[3] = tested on: Rattus norvegicus; test: Induction of growth hormone level in Juvenile Sprague-Dawley rat blood at 0.1 mg/kg, po administered as single dose measured after 4 hrs by ELISA method (reference value: 32.5+/-4.5 ng/mL); assay type: functional
[4] = tested on: Rattus norvegicus; test: Induction of growth hormone level in Juvenile Sprague-Dawley rat blood at 0.2 mg/kg, po administered as single dose measured immediately by ELISA method (reference value: 28.5+/-8.7 ng/mL); assay type: functional
[5] = target: Cytochrome P450 3A4 (Homo sapiens, UniProt P08684); test: Inhibition of CYP3A4 in human liver microsome using midazolam as substrate incubated for 5 min in presence of NADPH by UPLC-MS/MS analysis; assay type: ADME, microsomes
[6] = tested on: Rattus norvegicus; test: Induction of growth hormone level in adult Sprague-Dawley rat blood at 0.5 mg/kg, po administered as single dose measured immediately by ELISA method (reference value: 12.6+/-4.4 ng/mL); assay type: functional
[7] = Toxicity in Sprague-Dawley rat assessed as effect on lymphocyte containing white pulp around central arteriole at 10 to 100 mg/kg, po administered once daily for 14 days by H&E staining based analysis; assay type: organism-based; settings: in vivo, 336 h, dose 10-100 mg/kg, time 14 day
[8] = Cmax in male mouse at 2 mg/kg, po administered as single dose measured after 4 hrs; assay type: ADME, organism-based; settings: in vivo
[9] = tested on: Rattus norvegicus; test: Induction of growth hormone level in adult Sprague-Dawley rat blood by measuring AUC(0 to 40 mins) at 0.2 mg/kg, po administered as single dose by ELISA method (reference value: 7.0+/-1.7 ng/mL); assay type: functional, organism-based
[10] = tested on: Rattus norvegicus; test: Induction of growth hormone level in Juvenile Sprague-Dawley rat blood at 0.5 mg/kg, po administered as single dose measured after 10 mins by ELISA method (reference value: 23.2+/-5.6 ng/mL); assay type: functional
[11] = tested on: Rattus norvegicus; test: Induction of growth hormone level in 4 week-old female Sprague-Dawley rat assessed as increase in body length at 2.5 mg/kg, po measured after 10 days; assay type: functional, organism-based; settings: time 10.0 day
[12] = tested on: Rattus norvegicus; test: Induction of growth hormone level in Juvenile Sprague-Dawley rat blood by measuring AUC(0 to 40 mins) at 0.5 mg/kg, po administered as single dose by ELISA method (reference value: 20.2+/-4.3 ng/mL); assay type: functional, organism-based
[13] = Tmax in male mouse at 2 mg/kg, po administered as single dose measured after 4 hrs; assay type: ADME, organism-based; settings: in vivo
[14] = tested on: Rattus norvegicus; test: Induction of growth hormone level in Juvenile Sprague-Dawley rat blood by measuring AUC(0 to 40 mins) at 0.1 mg/kg, po administered as single dose by ELISA method (reference value: 20.2+/-4.3 ng/mL); assay type: functional, organism-based; settings: time 4.0 hrs
[15] = tested on: Rattus norvegicus; test: Induction of growth hormone level in adult Sprague-Dawley rat blood at 0.1 mg/kg, po administered as single dose measured after 40 mins by ELISA method (reference value: 14.4+/-6.9 ng/mL); assay type: functional
[16] = Elimination half life in male Sprague-Dawley rat at 2 mg/kg, po administered as single dose measured after 4 hrs; assay type: ADME, organism-based; settings: in vivo, read-out: beta t1/2 (converted)
[17] = target: Growth hormone secretagogue receptor type 1 (Rattus norvegicus) (UniProt O08725); test: Agonist activity at rat GHSR expressed in CHO cells at maximum concentration incubated for 60 min by FLIPR assay relative to control; assay type: functional, cell-based; settings: filed as agonist
[18] = Plasma protein binding in monkey assessed as unbound fraction measured after 6 hrs by dialysis method; assay type: ADME, cell-free, Macaca mulatta; settings: rhesus monkey
[19] = tested on: Rattus norvegicus; test: Induction of growth hormone level in 4 week-old male Sprague-Dawley rat assessed as increase in body length at 2.5 mg/kg, po measured after 10 days; assay type: functional, organism-based; settings: time 10.0 day
[20] = tested on: Rattus norvegicus; test: Induction of growth hormone level in Juvenile Sprague-Dawley rat blood at 0.1 mg/kg, po administered as single dose measured after 10 mins by ELISA method (reference value: 23.2+/-5.6 ng/mL); assay type: functional
[21] = tested on: Rattus norvegicus; test: Induction of growth hormone level in 6 week-old female Sprague-Dawley rat assessed as increase in body weight at 2.5 mg/kg, po measured after 10 days; assay type: functional, organism-based; settings: time 10.0 day
[22] = tested on: Rattus norvegicus; test: Induction of growth hormone level in Juvenile Sprague-Dawley rat blood at 0.5 mg/kg, po administered as single dose measured after 4 hrs by ELISA method (reference value: 32.5+/-4.5 ng/mL); assay type: functional
[23] = tested on: Rattus norvegicus; test: Induction of growth hormone level in Juvenile Sprague-Dawley rat blood at 0.1 mg/kg, po administered as single dose measured after 1 hr by ELISA method (reference value: 45.2+/-12.5 ng/mL); assay type: functional
[24] = Agonist activity at dog GHSR expressed in CHO cells incubated for 60 min by FLIPR assay; assay type: cell-based; settings: 1 h
[25] = Metabolic stability in monkey liver microsome assessed as intrinsic clearance at 1 uM measured upto 60 mins in presence of NADPH by LC-MS/MS analysis; assay type: ADME, Macaca mulatta; settings: rhesus monkey, liver microsomes, read-out: CLH
[26] = tested on: Rattus norvegicus; test: Induction of growth hormone level in adult Sprague-Dawley rat blood at 0.5 mg/kg, po administered as single dose measured after 40 mins by ELISA method (reference value: 14.4+/-6.9 ng/mL); assay type: functional
[27] = tested on: Rattus norvegicus; test: Induction of growth hormone level in Juvenile Sprague-Dawley rat blood at 0.2 mg/kg, po administered as single dose measured after 40 mins by ELISA method (reference value: 40.1+/-11.0 ng/mL); assay type: functional
[28] = Half life in male monkey at 0.5 mg/kg, iv administered as single dose measured after 4 hrs; assay type: ADME, organism-based, Macaca mulatta; settings: rhesus monkey, in vivo
[29] = tested on: Rattus norvegicus; test: Induction of growth hormone level in Juvenile Sprague-Dawley rat blood at 0.2 mg/kg, po administered as single dose measured after 2 hrs by ELISA method (reference value: 26.5+/-7.3 ng/mL); assay type: functional
[30] = Genotoxicity in Salmonella typhimurium TA100 by Ames test; assay type: toxicity; settings: salmonella enterica subsp. enterica serovar typhimurium
[31] = tested on: Rattus norvegicus; test: Induction of growth hormone level in Juvenile Sprague-Dawley rat blood at 0.2 mg/kg, po administered as single dose measured after 20 mins by ELISA method (reference value: 29.1+/-8.6 ng/mL); assay type: functional
[32] = tested on: Rattus norvegicus; test: Induction of growth hormone level in Juvenile Sprague-Dawley rat blood at 0.5 mg/kg, po administered as single dose measured after 40 mins by ELISA method (reference value: 40.1+/-11.0 ng/mL); assay type: functional
[33] = Elimination half life in male Sprague-Dawley rat at 1 mg/kg, iv administered as single dose measured after 4 hrs; assay type: ADME, organism-based; settings: in vivo, read-out: beta t1/2 (converted)
[34] = Half life in male monkey at 2 mg/kg, po administered as single dose measured after 4 hrs; assay type: ADME, organism-based, Macaca mulatta; settings: rhesus monkey, in vivo
[35] = AUC in male Sprague-Dawley rat at 2 mg/kg, po administered as single dose measured after 4 hrs; assay type: ADME, organism-based; settings: in vivo

Cytochrome P450 3A4, sequence (P08684 whole entry): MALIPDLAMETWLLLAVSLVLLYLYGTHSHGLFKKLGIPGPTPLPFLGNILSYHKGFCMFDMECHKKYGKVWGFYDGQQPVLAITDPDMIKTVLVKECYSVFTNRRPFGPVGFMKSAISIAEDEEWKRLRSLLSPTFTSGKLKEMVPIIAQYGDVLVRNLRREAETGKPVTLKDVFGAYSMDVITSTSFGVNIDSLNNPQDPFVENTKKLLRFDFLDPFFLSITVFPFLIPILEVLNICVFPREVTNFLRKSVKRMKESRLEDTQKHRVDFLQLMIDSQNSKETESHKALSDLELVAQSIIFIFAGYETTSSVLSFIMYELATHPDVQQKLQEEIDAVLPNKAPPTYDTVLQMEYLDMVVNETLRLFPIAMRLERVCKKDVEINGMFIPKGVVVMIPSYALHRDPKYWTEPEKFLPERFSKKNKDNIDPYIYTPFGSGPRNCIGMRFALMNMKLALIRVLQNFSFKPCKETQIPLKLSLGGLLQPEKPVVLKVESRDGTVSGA
Growth hormone secretagogue receptor type 1 (Rattus norvegicus), sequence (O08725 whole entry): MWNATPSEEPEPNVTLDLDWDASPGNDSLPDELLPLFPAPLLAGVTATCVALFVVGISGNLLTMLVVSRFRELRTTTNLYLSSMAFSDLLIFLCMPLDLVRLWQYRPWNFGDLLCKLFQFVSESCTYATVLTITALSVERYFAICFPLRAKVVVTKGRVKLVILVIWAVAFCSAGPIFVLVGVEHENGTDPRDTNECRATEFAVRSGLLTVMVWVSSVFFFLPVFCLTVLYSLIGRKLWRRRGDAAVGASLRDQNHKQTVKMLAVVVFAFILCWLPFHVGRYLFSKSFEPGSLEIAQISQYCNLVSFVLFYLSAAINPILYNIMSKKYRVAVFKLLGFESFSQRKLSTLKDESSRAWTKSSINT

CC(C)(N)C(=O)N[C@H](COCc1ccccc1)C(=O)N1CCC2=NN(C3CC3)C(=O)[C@]2(Cc2ccccc2)C1
Activity [1]: Non-toxic | CLint scaled at 1 µM [2]: 541 mL/min/kg | Activity [3]: 41.4 ng/mL | Activity [4]: 33.4 ng/mL | IC50 [5]: > 30000 nM | Activity [6]: 14 ng/mL | Activity [7]: Non-toxic | Cmax [8]: 125 ng/mL | AUC [9]: 62.6 ng·h/mL | Activity [10]: 230.9 ng/mL | Activity [11]: Active | AUC [12]: 110 ng·h/mL | Tmax [13]: 0.25 h | AUC [14]: 109 ng·h/mL | Activity [15]: 27.6 ng/mL | half-life [16]: 2.76 h | Activity [17]: 96.7% | fraction unbound at 6 h [18]: 0.46 | Activity [19]: Active | Activity [20]: 168.5 ng/mL | Activity [21]: Active | Activity [22]: 56.7 ng/mL | Activity [23]: 37.8 ng/mL | EC50 [24]: 0.043 nM | microsomal CLint at 1 µM [25]: 451 µL/min/mg | Activity [26]: 27.8 ng/mL | Activity [27]: 66.5 ng/mL | half-life [28]: 0.78 h | Activity [29]: 32.3 ng/mL | Activity [30]: Non-toxic | Activity [31]: 217.8 ng/mL | Activity [32]: 74.6 ng/mL | half-life [33]: 1.07 h | half-life [34]: 1.02 h | AUC at 4 h [35]: 188 ng·h/mL
